Test results published in patent US8431596B2 (Cancer Research Technology Limited, priority 2007, dated 2013).

Biological target: T1, AXL (human catalytic domain) (Homo sapiens, UniProt P30530)
T1 construct: purchased Upstate Ltd. 14-512
T1 sequence (P30530 473-894): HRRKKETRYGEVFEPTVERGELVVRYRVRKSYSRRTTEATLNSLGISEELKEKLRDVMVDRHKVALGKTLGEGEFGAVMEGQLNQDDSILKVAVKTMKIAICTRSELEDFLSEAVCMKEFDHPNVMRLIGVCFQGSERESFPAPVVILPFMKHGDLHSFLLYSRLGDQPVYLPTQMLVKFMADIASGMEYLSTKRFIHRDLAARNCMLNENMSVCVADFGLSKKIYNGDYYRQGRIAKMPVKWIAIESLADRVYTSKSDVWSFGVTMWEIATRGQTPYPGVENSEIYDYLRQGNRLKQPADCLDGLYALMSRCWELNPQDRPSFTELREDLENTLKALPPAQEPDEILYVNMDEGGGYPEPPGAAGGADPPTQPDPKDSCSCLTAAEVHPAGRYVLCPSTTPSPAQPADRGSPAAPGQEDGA
Assay: AXL (human catalytic domain) Enzyme Activity Assay (IMAP fluorescence polarisation)
Type: biochemical
Summary of the method: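 Recombinant human AXL isoform 1 (aa473-894; final 15 nM) phosphorylated 100 nM fluorescein-CSK-tide with 150 μM ATP (KM) in HEPES pH 7.0/MgCl2/DTT buffer for 60 min at room temperature. IMAP fluorescence polarisation read after overnight binding; IC50 from 10-point 4-parameter logistic fits.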

[1] = first data set, recombinant AXL isoform 1 aa473-894, 150 μM ATP
[2] = further data set (WW-001 through WW-169, XX-001 through XX-469, YY-001 through YY-016, ZZ-001 through ZZ-003), 150 μM ATP

IC50 [1] [nM] | IC50 [2] [nM] | Structure (SMILES)
– | 100 to 1000 | Cc1nnc(SCCn2cc(-c3cccc4nc(Nc5ccc(OCCN6CCCC6)cc5)nn34)cn2)s1 [XX-430]
< 1000 | 100 to 1000 | COc1ccc(-c2cccc3nc(Nc4cccc(OCCCN)c4)nn23)cc1 [XX-045]
– | 1000 to 10000 | NC(=O)COc1cccc(-c2cccc3nc(Nc4ccc(OCCN5CCCC5)cc4)nn23)c1 [XX-404]
– | 100 to 1000 | FC(F)(F)c1ccc(-c2cccc3nc(Nc4ccc(OCCN5CCCC5)cc4)nn23)cc1 [XX-218]
< 1000 | ≤ 100 | CNCCOc1cccc(Nc2nc3cccc(-c4ccc5c(c4)OCCO5)n3n2)c1 [XX-081]
1000 to 10000 | 1000 to 10000 | CCS(=O)(=O)n1cc(-c2cccc3nc(NC(=O)C4CC4)nn23)cn1 [WW-147, Cyclopropanecarboxylic acid [5-(1-ethanesulfonyl-1H-pyrazol-4-yl)-[1,2,4]triazolo[1,5-a]pyridin-2-yl]-amide]
– | 100 to 1000 | Cc1ccc(CNc2ccc(-c3cccc4nc(Nc5ccc(OCCN6CCCC6)cc5)nn34)cc2)cc1 [XX-267]
< 1000 | 100 to 1000 | c1cc(-c2ccc3c(c2)OCCO3)n2nc(Nc3ccc(OCCN4CCCC4)cc3)nc2c1 [XX-018]
– | ≤ 100 | CN(CCN1CCCC1)c1ccc(Nc2nc3cccc(-c4ccc5c(c4)OCCO5)n3n2)cc1 [XX-154]
– | 100 to 1000 | Cc1ccccc1CNc1cccc(-c2cccc3nc(Nc4ccc(OCCN5CCCC5)cc4)nn23)c1 [XX-454]
< 1000 | 100 to 1000 | O=C(Nc1nc2cccc(-c3ccc(O)c(F)c3)n2n1)C1CC1 [WW-096]
– | 100 to 1000 | Cc1cc(C)cc(-c2nccc3nc(Nc4ccc(OCCN5CCCC5)cc4)nn23)c1 [YY-015]
< 1000 | ≤ 100 | CN(C)CCOc1ccc(Nc2nc3cccc(-c4ccc5occc5c4)n3n2)cc1 [XX-051]
1000 to 10000 | 1000 to 10000 | CC(C)(C)c1ccc(-c2cccc3nc(NC(=O)C4CC4)nn23)cc1 [WW-139]
– | 100 to 1000 | Cc1ccc(-c2cccc3nc(Nc4ccc(OCCN5CCCC5)cc4)nn23)cc1C [XX-279]
– | 100 to 1000 | c1cc(-c2ccc3c(c2)OCCO3)n2nc(Nc3ccc(OCCN4CCCCC4)nc3)nc2c1 [XX-106]

IC50 [1] [nM] | IC50 [2] [nM] | Structure (SMILES)
– | 100 to 1000 | N#CCCn1cc(-c2cccc3nc(Nc4ccc(OCCN5CCCC5)cc4)nn23)cn1 [XX-351]
– | ≤ 100 | CCS(=O)(=O)n1cc(-c2cccc3nc(Nc4ccc(OCCN5CCCC5)cc4)nn23)cn1 [XX-374]
– | 100 to 1000 | Cn1ccc2cc(-c3cccc4nc(Nc5ccc(OCCN6CCCC6)cc5)nn34)ccc21 [XX-439]
1000 to 10000 | 1000 to 10000 | O=C(Nc1nc2cccc(NCc3cccc(Cl)c3)n2n1)C1CC1 [WW-081]
– | ≤ 100 | CCN(CC)CCOc1cc(Nc2nc3cccc(-c4ccc5[nH]ccc5c4)n3n2)ccn1 [XX-363]
– | 100 to 1000 | O=C(NCc1cccc(-c2cccc3nc(Nc4ccc(OCCN5CCCC5)cc4)nn23)c1)Nc1ccccc1 [XX-371]
– | 100 to 1000 | O=C(CN1CCCC1)Nc1cccc(Nc2nc3cccc(-c4ccc5c(c4)OCCO5)n3n2)c1 [XX-107]
– | 100 to 1000 | CC(C(=O)Nc1ccc(Nc2nc3cccc(-c4ccc5c(c4)OCCO5)n3n2)cc1)N1CCCC1 (stereo not shown) [XX-135]
< 1000 | 100 to 1000 | c1cc(-c2ccc3c(c2)OCO3)n2nc(Nc3ccc(OCCN4CCCCC4)cc3)nc2c1 [XX-047]
– | 1000 to 10000 | Clc1ccc(COc2cccc(-c3cccc4nc(Nc5ccc(OCCN6CCCC6)cc5)nn34)c2)cc1 [XX-336]
– | 100 to 1000 | Cc1nc(CNc2cccc(-c3cccc4nc(Nc5ccc(OCCN6CCCC6)cc5)nn34)c2)c(C)o1 [XX-397]
– | 100 to 1000 | Fc1ccc(-c2cccc3nc(Nc4ccc(OCCN5CCCC5)cc4)nn23)cc1Cl [XX-282]
– | 100 to 1000 | O=C(Cn1cc(-c2cccc3nc(Nc4ccc(OCCN5CCCC5)cc4)nn23)cn1)NCc1ccccc1 [XX-433]
– | 100 to 1000 | F[C@H]1CCN(CCOc2ccc(Nc3nc4cccc(-c5ccc6c(c5)OCCO6)n4n3)cc2)C1 [XX-157]
– | 100 to 1000 | Clc1ccc(-c2cccc3nc(Nc4ccc(OCCN5CCCC5)cc4)nn23)s1 [XX-299]

The remaining lines, values behind:

Structure (SMILES) | IC50 [1] [nM] | IC50 [2] [nM]
CS(=O)(=O)Nc1cccc(-c2cccc3nc(NC(=O)C4CC4)nn23)c1 [WW-011, Cyclopropanecarboxylic acid [5-(3-methanesulfonylamino-phenyl)-[1,2,4]triazolo[1,5-a]pyridin-2-yl]-amide] | 1000 to 10000 | 1000 to 10000
O=C(Nc1nc2cccc(-c3ccccc3)n2n1)C1CC1 [WW-001, Cyclopropanecarboxylic acid (5-phenyl-[1,2,4]triazolo[1,5-a]pyridin-2-yl)-amide] | < 1000 | 100 to 1000
COc1ccc(-c2cccc3nc(Nc4ccc(OCCN5CCCC5)cc4)nn23)cc1 [XX-004] | < 1000 | 1000 to 10000
O=C(Nc1nc2cccc(Nc3cccc(Cl)c3)n2n1)C1CC1 [WW-129] | 1000 to 10000 | 1000 to 10000
COc1ccc(-c2cccc3nc(NC(=O)C4CCC4)nn23)cc1 [WW-042] | 1000 to 10000 | 1000 to 10000
CCN(CC)CCOc1cc(Nc2nc3ccnc(-c4cnn(Cc5ccccc5)c4)n3n2)ccn1 [YY-016] | – | 1000 to 10000
COc1ccc(-c2nccc3nc(Nc4ccc(C(=O)NCCN(C)C)cc4)nn23)cc1 [YY-004] | < 1000 | ≤ 100
COc1ccc(S(=O)(=O)Nc2ccc(-c3cccc4nc(Nc5ccc(OCCN6CCCC6)cc5)nn34)cc2)cc1 [XX-254, 4-Methoxy-N-(4-{2-[4-(2-pyrrolidin-1-yl-ethoxy)-phenylamino]-[1,2,4]triazolo[1,5-a]pyridin-5-yl}-phenyl)-benzenesulfonamide] | – | 100 to 1000
CNc1ccc(-c2cccc3nc(NC(=O)C4CC4)nn23)cc1 [WW-120, Cyclopropanecarboxylic acid [5-(4-methylamino-phenyl)-[1,2,4]triazolo[1,5-a]pyridin-2-yl]-amide] | 1000 to 10000 | 1000 to 10000
CN(C)CCCc1ccc(Nc2nc3cccc(-c4ccc5c(c4)OCCO5)n3n2)cc1 [XX-137] | – | 100 to 1000
Cc1cccc(Cn2cc(-c3cccc4nc(Nc5ccc(OCCN6CCCC6)cc5)nn34)cn2)c1 [XX-290] | – | ≤ 100
O=C(Nc1nc2cccc(-c3ccc(-c4ccccc4)cc3)n2n1)C1CC1 [WW-063] | < 1000 | 100 to 1000
COc1ccc(-c2cccc3nc(NC(=O)C4CC4)nn23)cc1C [WW-094] | < 1000 | 100 to 1000
C[C@@H](CN)Oc1ccc(Nc2nc3cccc(-c4ccc5c(c4)OCCO5)n3n2)cc1 [XX-141] | – | 100 to 1000
O=C(Nc1nc2cccc(-c3ccc(-n4cccn4)cc3)n2n1)C1CC1 [WW-109] | 1000 to 10000 | 1000 to 10000
CN(C)c1cccc(-c2cccc3nc(Nc4ccc(OCCN5CCCC5)cc4)nn23)c1 [XX-236] | – | 100 to 1000
CN(C)c1ccc(-c2cccc3nc(NC(=O)C4CC4)nn23)cn1 [WW-036] | 1000 to 10000 | 1000 to 10000
c1cc(-c2ccc(-c3cn[nH]c3)cc2)n2nc(Nc3ccc(OCCN4CCCC4)cc3)nc2c1 [XX-187] | – | 100 to 1000
CC(C)Oc1ccc(-c2cccc3nc(Nc4ccc(OCCN5CCCC5)cc4)nn23)cc1 [XX-012] | < 1000 | 100 to 1000
COc1ccc(-c2cccc3nc(Nc4ccc(N(C)C)cc4)nn23)cc1 [XX-057] | 1000 to 10000 | 1000 to 10000
COc1cc(CNc2cccc(-c3cccc4nc(Nc5ccc(OCCN6CCCC6)cc5)nn34)c2)cc(OC)c1 [XX-450] | – | 100 to 1000
c1coc(-c2ccc(-c3cccc4nc(Nc5ccc(OCCN6CCCC6)cc5)nn34)cc2)c1 [XX-188] | – | 100 to 1000
Cc1ccc(CS(=O)(=O)n2cc(-c3cccc4nc(Nc5ccc(OCCN6CCCC6)cc5)nn34)cn2)cc1 [XX-295] | – | 100 to 1000
Cc1ccc(-c2cccc3nc(Nc4cccc(C(=O)NCCN5CCCC5)c4)nn23)cc1F [XX-365] | – | 100 to 1000
c1cc(-c2ccc3c(c2)OCCO3)n2nc(Nc3ccc(OCCCN4CCCC4)cc3)nc2c1 [XX-312] | – | ≤ 100
O=C(Nc1nc2cccc(-c3ccc4ncccc4c3)n2n1)C1CC1 [WW-092] | < 1000 | 100 to 1000
O=C(Nc1nc2cccc(NCc3ccccc3Cl)n2n1)C1CC1 [WW-082] | 1000 to 10000 | 1000 to 10000
